Test results: the NIST ThermoML archive (doi:10.1007/s10765-008-0390-4)

Test: xn = mol fraction of the nth substance listed
Conditions: 101 kPa, Liquid

ClC(Cl)Cl [trichloromethane] + CCCCO
mass density [kg/m3]
Conditions | 288.15 K | 293.15 K | 298.15 K | 303.15 K | 308.15 K | 313.15 K
x2 = 0 | 1498.08 | 1488.64 | 1479.15 | 1469.61 | 1460.03 | 1450.41
x2 = 0.0493 | 1458.97 | 1449.82 | 1440.63 | 1431.4 | 1422.12 | 1412.82
x2 = 0.0994 | 1420.12 | 1411.28 | 1402.39 | 1393.45 | 1384.45 | 1375.41
x2 = 0.1499 | 1381.86 | 1373.34 | 1364.77 | 1356.15 | 1347.47 | 1338.76
x2 = 0.2003 | 1344.3 | 1336.11 | 1327.86 | 1319.57 | 1311.21 | 1302.8
x2 = 0.2476 | 1309.65 | 1301.76 | 1293.82 | 1285.82 | 1277.77 | 1269.66
x2 = 0.279 | 1286.97 | 1279.28 | 1271.53 | 1263.75 | 1255.9 | 1248.02
x2 = 0.3474 | 1238.34 | 1231.07 | 1223.75 | 1216.37 | 1208.94 | 1201.48
x2 = 0.4003 | 1201.44 | 1194.48 | 1187.48 | 1180.42 | 1173.31 | 1166.16
x2 = 0.461 | 1159.74 | 1153.14 | 1146.5 | 1139.81 | 1133.06 | 1126.29
x2 = 0.4993 | 1133.81 | 1127.43 | 1121 | 1114.53 | 1108 | 1101.42
x2 = 0.5517 | 1098.6 | 1092.6 | 1086.4 | 1080.3 | 1074 | 1067.8
x2 = 0.5989 | 1067.38 | 1061.55 | 1055.69 | 1049.78 | 1043.81 | 1037.8
x2 = 0.651 | 1033.23 | 1027.7 | 1022.12 | 1016.5 | 1010.82 | 1005.11
x2 = 0.7008 | 1001.03 | 995.76 | 990.45 | 985.097 | 979.698 | 974.26
x2 = 0.7485 | 970.42 | 965.404 | 960.349 | 955.255 | 950.115 | 944.94
x2 = 0.7987 | 938.452 | 933.697 | 928.907 | 924.082 | 919.208 | 914.297
x2 = 0.8495 | 906.492 | 901.999 | 897.472 | 892.91 | 888.303 | 883.67
x2 = 0.8953 | 877.854 | 873.588 | 869.292 | 864.961 | 860.59 | 856.188
x2 = 0.9475 | 845.53 | 841.51 | 837.462 | 833.386 | 829.272 | 825.138
